Data on 5 molecules can be found in patent US20190135879A1, “GENE REGULATING BIN2 FUNCTION AND TRANSGENIC PLANT TRANSFORMED BY THE GENE” (SEOUL NATIONAL UNIVERSITY R&DB FOUNDATION, priority 2016, published 2019).

Residues, ends and D or L forms follow the SMILES beside them. *: point of attachment. Cbz = O=C(OCc1ccccc1)*

The test system of test [1] is BIN2-HA protein. Kind of test: BL treatment assay, BIN2-HA protein amount by IP/Western analysis. The format is in vivo, Arabidopsis thaliana. As to the method:
Seedlings from 1-week-old plants were harvested and ground to powder in N2 and mixed with the extraction buffer containing 50 mM Tris-Cl (pH 7.5), 100 mM NaCl, 10 mM MgCl2, 1 mM EDTA, 10% glycerol 0.1% NP-40, 1 mM phenymethylsulfonyl fluoride (PMSF), and 1× protease inhibitor cocktail (GenDEPOT) 20 min at 4° C.
The IP experiments were performed using HA Tag IP/Co-IP Kit according to the manufacturer's protocol (Thermo Pierce).
The supernatant was incubated with prewashed anti-HA agarose beads for 4 h at 4° C. with gentle shaking. The beads were collected and washed three times with TBS plus 0.05% Tween-20 detergent (TBST), and dissolved in 2×SDS sample buffer. The proteins were separated by 10% SDS-PAGE, and Anti-HA (1:2,000, AbCam #9110) antibody was used to detect BIN2-HA.
[…] The seedlings were transferred to liquid 1/2 MS medium with 1% sucrose containing various concentrations of BL (24-epibrassinolide, Sigma #E1641), and incubated for the indicated times before being removed for Western analysis.
To investigate the BL-Induced BIN2 degradation, BRZ (Sekimata et al., 2001) treated seedlings were incubated in liquid 1/2 MS medium containing 1 μM BL and/or 20 μM MG132 (Sigma), a specific 26S proteasome inhibitor (Rock et al., 1994) for 30 min.

Test [2] has as its system BIN2-HA transgenic seedlings. In words: Phenotype of BIN2-HA transgenic seedlings on BRZ / BL medium. The format is in vivo, Arabidopsis thaliana. As to the method:
(§1) Arabidopsis seeds were sterilized and germinated on agar-solidified 1/2 Murashige and Skoog (MS, Duchefa #M0222) with 1% sucrose. After stratification at 4° C. for 3 days, the wild type and mutant plants were grown under a photoperiod of a long day condition (16 h light/8 h dark) at 23° C. Seeds of various transgenic lines were germinated on Murashige and Skoog medium (1/2 MS) with 2 μM BRZ (Sigma), a BR biosynthesis inhibitor, and grown under a long day condition at 23° C. for 1 week. The seedlings were transferred to liquid 1/2 MS medium with 1% sucrose containing various concentrations of BL (24-epibrassinolide, Sigma #E1641), and incubated for the indicated times before being removed for Western analysis. To confirm whether the amount of BIN2 is affected by the BRs level, we grew BIN2-HA line and a bin2-6D-HA line on medium containing 2 μM BRZ for 2 weeks and then transferred them to liquid medium with 1 μM epi-BL for 2 to 8 days.

In test [3] the test system is bin2-6D-HA transgenic seedlings. In words: Phenotype of bin2-6D-HA transgenic seedlings on BL medium. The class given is in vivo, Arabidopsis thaliana. The settings on record: 1 μM BL-containing medium for 0, 2, 4 and 8 d. The method, then: as §1
The target in test [4] is T1, BIN2 (Arabidopsis thaliana, UniProt Q39011).
T1 construct: the full-length cDNA fragments of BIN2 and BRF1 were PCR amplified with specific primers; expressed in transfected cells; host or cells: yeast strain AH109
T1 sequence (Q39011 1-380): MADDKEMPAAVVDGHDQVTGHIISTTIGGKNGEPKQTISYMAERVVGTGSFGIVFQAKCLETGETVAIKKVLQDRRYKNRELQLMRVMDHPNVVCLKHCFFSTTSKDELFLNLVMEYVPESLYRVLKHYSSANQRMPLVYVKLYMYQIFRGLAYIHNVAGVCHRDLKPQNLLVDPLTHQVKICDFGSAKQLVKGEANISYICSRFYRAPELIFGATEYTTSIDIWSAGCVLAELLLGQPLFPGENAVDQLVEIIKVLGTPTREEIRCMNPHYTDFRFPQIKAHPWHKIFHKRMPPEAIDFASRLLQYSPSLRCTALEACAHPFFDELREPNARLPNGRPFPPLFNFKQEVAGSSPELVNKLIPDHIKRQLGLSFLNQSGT
Kind of test: Yeast two-hybrid assay of the BIN2-BRF1 interaction. As to conditions: SD/-L-T-H medium with 1.5 mM 3-AT. The format is binding. As to the method:
Yeast two-hybrid assay was conducted following the Matchmaker Gold Yeast Two-Hybrid System manufacturer's protocol (Clontech) for testing the BIN2 and BRF1 interaction.
To make the yeast two-hybrid assay constructs, the full-length cDNA fragments of BIN2 and BRF1 were PCR amplified with specific primers, BIN2-F and BIN2-R, BRF1-NdeI-F and BRF1-EcoRI-R, respectively. The PCR products BIN2 and BRF1 were ligated to the prey pGADT7 vector (AD vector) and the bait pGBKT7 vector (DBD vector), respectively. These prey and bait vectors were transformed into the yeast strain AH109, and yeast was grown on SD/-Trp/-Leu medium for 3 days. Transformants were selected on SD/Leu-/Trp- and SD/Leu-/Trp-/His-/1.5 mM 3-amino-1,2,4-triazole (3-AT, Sigma) medium. Empty vectors were used as the negative control.
Yeast two-hybrid analysis performed using primers BIN2-NdeI-F (5′-[…]-3′), BIN2-EcoRI-R (5′-[…]-3′), BRF1-NdeI-F (5′-[…]-3′), BRF1-EcoRI-R (5′-[…]-3′), (NdeI and EcoRI sites are underlined) (SEQ ID NOs: 48-51)

In test [5] the test system is BIN2. In words: Immunoprecipitation combined with LC/MALDI-TOF/MS of BIN2-interacting proteins. The class given is binding, Arabidopsis thaliana. The settings on record: BL-treated transgenic seedlings, anti-HA IP. The method, then:
Seeds of transgenic lines, BIN2-HA, bin2-6D-HA, and BIN2KD-HA, were germinated on agar-solidified 1/2 MS with 1% sucrose supplemented with 1 μM BRZ and grown under a long day condition at 23° C. for 2 week. The seedlings were transferred them to liquid medium (1/2 MS with 1% sucrose) with 1 μM BL, and incubated for 30 min. These seedlings were ground to powder in liquid nitrogen and solubilized with protein extraction buffer containing 50 mM Tris-Cl (pH 7.5), 100 mM NaCl, 10 mM MgCl2, 1 mM EDTA, 10% glycerol 0.1% NP-40, 1 mM PMSF, and 1× Protease inhibitor cocktail (GenDEPOT). The extracts were centrifuged at 20,000×g for 20 min, and the resulting supernatants were collected and incubated with pretreated anti-HA agarose bead (Thermo Pierce) at 4° C. After incubation, the agarose beads were collected by centrifugation at 800×g for 30 sec and washed three times with extraction buffer. Immunoprecipitation (IP) complex was eluted by elution buffer containing 50 mM Tris-HCl (pH 7.5), 50 mM DTT, 1 mM EDTA, 10% glycerol, 1% SDS, and 0.01% bromophenol blue, and then separated in a 10% SDS-PAGE gel, and immunoblot analysis. […] The gel lane with separated bin2-6D-HA proteins was cut into a single slices, and then in-gel tryptic digestion and peptide desalting, the extracted peptides were analyzed by MALDI-TOF mass spectrometry on an Ultraflex III TOF/TOF (Bruker Daltonics, Germany). […]

For `CC(C)[C@@H](C)[C@@H](O)[C@H](O)[C@@H](C)[C@H]1CC[C@H]2[C@@H]3COC(=O)[C@H]4C[C@H](O)[C@H](O)C[C@]4(C)[C@H]3CC[C@]12C` [BL, 24-epibrassinolide], in test [1] (BRZ-grown BIN2-HA seedlings transferred to BL liquid medium, Western), the “time within which BRZ-stabilized BIN2-HA protein decreased by BL treatment” value was 10 to 30 min. In addition, the “phenotypic response of BIN2-HA transgenic line to BL treatment” value in test [2] (1 μM BL-containing medium for 0, 2, 4 and 8 d) is recorded as “responds”. Further, the “phenotypic response of dwarfed bin2-6D-HA line to BL treatment” value in test [3] is on record as “BL-insensitive”.

As to `CC(O)(c1ccccc1)C(Cc1ccc(Cl)cc1)n1cncn1` (stereo not drawn) [BRZ], the “effect of exogenous application on BIN2 protein” value in test [1] (exogenous application of BRZ) is “increased”. For the same molecule, the “effect of BRZ treatment on bin2 phenotype of BIN2-HA seedling” value in test [2] (2 μM BRZ medium for 2 weeks) is reported as “enhanced”.

On to `CC(C)C[C@@H](C=O)NC(=O)[C@H](CC(C)C)NC(=O)[C@H](CC(C)C)NC(=O)OCc1ccccc1` [MG132] (Cbz-Leu-Leu-Leu-aldehyde), for which the “effect on BL-induced BIN2 disappearance” value in test [1] (BIN2-HA seedlings, 1 μM BRZ 2 weeks, then 1 μM BL and/or 20 μM MG132, 30 min, IP/Western) was “effectively blocked”.

B1: BRF1: Arabidopsis F-box E3 ligase protein encoded by At5g62970, SEQ ID NO: 2 (protein, listed as Arabidopsis sp.)
chain: MDKISGFSDDELLVKILSFLPFKFAITTSVLSKQWKFLWMRVPKLEYDEDSMYSFEYSFRYFLPKAKEVDSETYSIVSESGHRMRSFIEKNLPLHSSPVIESLRLKFFTEVFQPEDIKLWVEIAVSRCAQELSVDFFPKEKHNALLPRNLYTCKSLVTLKLRNNILVDVPHVFSLPSLKILHLERVTYGDGESLQRLLSNCSVLEDLVVELDTGDNVRKLDVIIPSLLSLSFGMSRYCAYEGYRIDTPSLKYFKLTDLSKTFSGLIENMPKLEEANITARHNFKKLLELVTSVKRLSLNIENNDAEALTAIYGDDIVFNELEHLNFHIHNAYWSELLYWLLKASPKLQNLEFDEQCSRDGTMGTLAVFWNQPNSVPQCLLSTLQTFEWSGYPGSVQGKDLATYILRKSRQLKIATISIGYGLDPQQKLKMEMDVKFSFRASPTCKRVFY
Consider B1, for which the “interaction with BIN2 in yeast two-hybrid assay” value in test [4] was “specially interacted”. The “identification as BIN2-interacting protein by IP combined LC/MALDI-TOF/MS” value in test [5] was “BIN2-interacting protein”.

B2: BRF2: Arabidopsis F-box E3 ligase protein encoded by At5g56690, SEQ ID NO: 4 (protein, listed as Arabidopsis sp.)
chain: MAEISGLPDDLLVKILAFLPTKVAISTSVLSKQWRFLWMWLPKLKYDDYDDITDGFNSVSAFQTYRDFIAKNLPLHRAPIIESLSLGFRCGTLQPEDLKSWVEVAVSRSVRELSILAYYRNNYALSSSSLYTCKSLVTLKGFNIRVDVPPTVCLLPSLRTLELKRVRYLNEDSLRMLLSFCPVLEYLSIERHDNDNLRGLVVDVPSLRRLSLTSYTGCSSDDYVIVTPSLKYFKAFDYRSEISSYKIEKIPELEEADISIERNPEKLFVYFKSIKCLSLQVDFNSKEEPGYDSGIVFNHLEELTPYINDANWSKLLFRLLNDSPKLRVLEISNSKSFYKEKIGEYLPVSWSKNQGSVPKCFLNSLETFRVKWYYSEEQEDRDFLSLIFKHARCLKSTSILHR
In the case of B2, the “identification as BIN2-interacting protein by IP combined LC/MALDI-TOF/MS” value in test [5] is given as “BIN2-interacting protein”.
